Measurements published in article PMC6013775, “Inhibition of the key enzyme of sialic acid biosynthesis by C6-Se modified N-acetylmannosamine analogs” (Chemical Science, 2016).
“And” between values parts separate entries of the source, which are not always exact repeats. Equal entries are not always repeated.

Columns and labels:
[1] = target: hexokinase (HK) from yeast; assay: Hexokinase inhibition, coupled optical assay; type: biochemical; conditions: glucose substrate
From the text: (§1) With the potent diselenide compound 14b in hand, we further studied the binding properties of this potent MNK inhibitor, which is to our knowledge the strongest MNK inhibitor reported to date. Diselenide 14b inhibited MNK activity in a dose dependent manner (Fig. 2A). […] Additionally, we tested if diselenide 14b influenced the GNE activity of the bifunctional GNE/MNK. […] To evaluate the specificity of the inhibitor towards other sugar kinases, we performed further inhibition studies using human GlcNAc kinase (GNK) and hexokinase (HK) from yeast (details in ESI ^†).
Enzyme activity and inhibition studies using N-acetylmannosamine kinase, N-acetylglucosamine kinase and yeast hexokinase
Evaluation MNK activity in presence of the compounds 11, 12, 14b, 16b and 18b The effects of compounds 11, 12, 14b, 16b, or 18b on MNK enzyme activity were evaluated using a coupled optical assay. 55 µl reaction mixture contained the following buffers and reagents: 39.5 µl buffer A (65 mM MgCl2, 200 mM Tris-HCl, pH 8.1), 5 µl ATP (50 mM), 3.5 µl NADH (30 mM), 2 µl phosphoenolpyruvate (100 mM), 2 U pyruvate-kinase, 2 U lactate-dehydrogenase, 5 µl ManNAc of varying concentrations. Subsequently, 10 µl of the compounds 11, 12, 14b, 16b and 18b were added in varying concentrations. The reaction was initiated by adding 0.6 µg MNK in 35 µL buffer B (10 mM Tris-HCl, 150 mM NaCl, pH 8.0). […]

[2] = target: T1, UDP-GlcNAc-2-epimerase (GNE) activity of GNE/MNK (Mus musculus, UniProt Q91WG8); assay: Colorimetric GNE activity assay in mouse liver cytosol; type: biochemical; conditions: 1 mM UDP-GlcNAc, 45 min at 37 °C, read-out: IC50 for inhibiting GNE activity
T1 construct: Analysis of GNE/MNK in mouse liver cytosol; from tissue; host or cells: mouse liver cytosol (supernatant of liver homogenate)
T1 sequence (Q91WG8 1-722): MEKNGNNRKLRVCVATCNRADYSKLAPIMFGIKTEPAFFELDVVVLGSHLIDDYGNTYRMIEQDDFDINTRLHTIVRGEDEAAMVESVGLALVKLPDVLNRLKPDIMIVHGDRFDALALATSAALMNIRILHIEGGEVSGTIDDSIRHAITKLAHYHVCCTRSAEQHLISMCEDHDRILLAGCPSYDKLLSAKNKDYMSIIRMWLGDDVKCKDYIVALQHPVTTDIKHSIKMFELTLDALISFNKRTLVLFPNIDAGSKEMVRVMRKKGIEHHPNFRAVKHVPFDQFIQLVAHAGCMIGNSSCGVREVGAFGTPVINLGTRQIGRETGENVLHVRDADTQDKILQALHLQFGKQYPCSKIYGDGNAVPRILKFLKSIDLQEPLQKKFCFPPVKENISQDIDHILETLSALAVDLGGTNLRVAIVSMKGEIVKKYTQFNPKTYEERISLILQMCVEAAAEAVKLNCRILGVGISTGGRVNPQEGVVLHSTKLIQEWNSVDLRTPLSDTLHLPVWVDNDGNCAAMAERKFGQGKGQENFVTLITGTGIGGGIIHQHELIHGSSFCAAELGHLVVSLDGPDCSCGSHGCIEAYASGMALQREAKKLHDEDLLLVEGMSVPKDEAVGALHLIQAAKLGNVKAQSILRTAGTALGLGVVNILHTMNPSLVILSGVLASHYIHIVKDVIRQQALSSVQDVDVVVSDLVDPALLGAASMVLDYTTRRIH
From the text: as §1
Evaluation of the influence of 14b on UDP-GlcNAc-2-epimerase activity
To study, if diselenide 14b interferes with the activity of the GNE domain of the bifunctional enzyme, we used enzymes from mouse liver homogenates. […] The sample was incubated at 37 °C for 20 min and the absorbance was […]

In the case of `CC(=O)N[C@@H]1C(O)O[C@H](C[Se][Se]C[C@H]2OC(O)[C@@H](NC(C)=O)[C@@H](O)[C@@H]2O)[C@@H](O)[C@@H]1O` (some centres unmarked) [Compound 14b], the IC50 [1] is reported as > 5000 µM and the IC50 [2] is reported as ~200 µM and 182 µM.
